Reference: patent US20260317306A1, “HETEROARYL DERIVATIVE COMPOUND AND USE THEREOF” (S2CBIO INC., priority 2022, published 2026)

Target: T1, human ANO6 (variant 5) (Homo sapiens, UniProt Q4KMQ2)
T1 construct: expressing human ANO6 (variant 5; NP_001191732.1); expressed in transfected cells; host or cells: Fischer rat thyroid (FRT) cells
T1 sequence (Q4KMQ2 1-931 isoform Q4KMQ2-2): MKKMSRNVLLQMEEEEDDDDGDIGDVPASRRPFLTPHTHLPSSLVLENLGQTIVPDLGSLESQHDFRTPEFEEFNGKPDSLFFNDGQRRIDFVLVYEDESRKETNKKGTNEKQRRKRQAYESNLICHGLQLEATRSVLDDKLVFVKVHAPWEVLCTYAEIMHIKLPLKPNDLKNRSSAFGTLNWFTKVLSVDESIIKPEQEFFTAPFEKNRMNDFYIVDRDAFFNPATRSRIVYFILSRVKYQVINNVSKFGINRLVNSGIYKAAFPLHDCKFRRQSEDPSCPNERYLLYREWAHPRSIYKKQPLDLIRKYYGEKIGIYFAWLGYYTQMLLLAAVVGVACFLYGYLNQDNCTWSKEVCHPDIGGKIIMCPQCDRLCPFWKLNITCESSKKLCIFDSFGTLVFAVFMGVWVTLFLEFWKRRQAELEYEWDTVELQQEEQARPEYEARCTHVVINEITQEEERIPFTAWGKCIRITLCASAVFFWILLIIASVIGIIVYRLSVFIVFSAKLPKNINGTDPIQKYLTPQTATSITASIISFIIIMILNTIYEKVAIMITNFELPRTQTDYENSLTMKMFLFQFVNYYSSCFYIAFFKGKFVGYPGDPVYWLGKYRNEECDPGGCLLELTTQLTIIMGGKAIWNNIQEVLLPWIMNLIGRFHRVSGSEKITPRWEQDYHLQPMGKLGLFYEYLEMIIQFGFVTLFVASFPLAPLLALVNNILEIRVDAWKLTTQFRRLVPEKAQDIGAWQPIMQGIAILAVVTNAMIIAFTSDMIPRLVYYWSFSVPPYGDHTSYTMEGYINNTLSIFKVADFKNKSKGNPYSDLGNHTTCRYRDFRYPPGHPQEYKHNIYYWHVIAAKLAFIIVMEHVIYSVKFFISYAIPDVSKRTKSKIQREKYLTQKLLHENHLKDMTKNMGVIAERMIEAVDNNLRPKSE
Assay: Lact C2 Assay (Measuring Phosphatidylserine Externalization Scramblase Function), ionomycin-treated Fischer rat thyroid (FRT) cells expressing human ANO6 (variant 5); compounds at 50 nM, 100 nM and 1 μM
Assay type: cell-based
Conditions: 10 μM ionomycin, average of three tests, read-out: % Inhibition (phosphatidylserine externalization inhibitory activity); for inhibition at 0.05 µM: compound at 50 nM; for inhibition at 0.1 µM: compound at 100 nM
Protocol: Ionomycin (Alomonelab, cat. #I-700), DAPI (Sigma-Aldrich, cat. #D8417), paraformaldehyde (Biosesang, cat. #P2031), Lionheart FX automated fluorescence microscope (BioTek), Gen5™ software program (BioTek), and Image J analysis software program.
Fisher rat thyroid (FRT) cells expressing human ANO6 (variant 5; GenBank accession no. NP_001191732.1) were cultured at 37° C. under 5% Co2 conditions in DMEM/Ham's F-12 (1:1) medium supplemented with 10% Fetal Bovine Serum, 2 mM […], 100 units/mL penicillin, and 100 μg/mL streptomycin.
Fischer Rat Thyroid (FRT) cells (2×10^4 cells/well) expressing human ANO6 (variant 5) were cultured in a 96-well microplate for 24 hours. After the incubation, the cells were treated with compounds dissolved in DMSO to 1% v/v in each well at each concentration (50 nM, 100 nM, and 1 μM) and reacted for 10 minutes. Thereafter, each well was treated with ionomycin to a final concentration of 10 μM, allowed to react for 10 minutes, and then washed with 200 μL PBS. After washing, each well was treated with 50 μL of Lactadherin-C2 (Lact-C2)-GFP mixed in DMEM medium to a final concentration of 500 nM to stain phosphatidylserine, and cultured at 37° C. for 10 minutes. After completion of the reaction, the cells were washed with 200 μL PBS, and fixed with 4% paraformaldehyde for 5 minutes at room temperature. For morphological analysis, DAPI solution was added, and the cells were incubated for 15 minutes, followed by washing with PBS. The fluorescence intensity of Lact-C2-GFP bound to phosphatidylserine on the cell surface was measured using an automated fluorescence microscope. For quantitative analysis of the fluorescence intensity of Lact-C2-GFP, BioTek Gen5™ software and Image J analysis software programs were used.
Phosphatidylserine externalization inhibitory activity (%) by the compound was calculated through the following analysis method. Specifically, the background fluorescence value was subtracted from the measured Lact-C2-GFP fluorescence value, and the fluorescence value of the ionomycin non-treatment group and the ionomycin-treatment group in the same row where each test group was located in a 96-well microplate were calculated. In order to calculate the inhibitory activity (%) by the compound, the relative inhibitory activity was calculated by setting the compound and ionomycin non-treatment group to 100% inhibitory activity and the ionomycin alone treatment group to 0% inhibitory activity. To derive the results, the test was repeated three times, and the average values of the results were classified according to the range below and shown in Table 4 below (A: >60% inhibition, B: 30 to 60% inhibition, N/A: no test).

inhibition at 0.05 µM | inhibition at 0.1 µM | Compound
30 to 60% | > 60% | c1cc(Nc2ncc(-c3ccncn3)cn2)cc(-c2nc3ccccc3[nH]2)c1 [Example 76, N-[3-(1H-benzo[d]imidazol-2-yl)phenyl]-[4,5′-bipyrimidin]-2′-amine]
> 60% | > 60% | Fc1ccc2nc(-c3cccc(Nc4ccc(-c5cccnn5)cn4)c3)[nH]c2c1 [Example 55]
